Measured values: EP2548557A1, “Reserpine to treat cognitive faults of the central nervous system” (Dr. Loges + Co. GmbH, priority 2011, dated 2013)

Experiments:
[1] = tested on: metabotrope Gruppe II Rezeptoren; test: Hippocampus slice preparation: suppression of the reserpine effect by a glutamate receptor antagonist (metabotropic group II); format: cell-based, Ratte; conditions: co-superfusion of antagonist with Reserpin; single and multiple stimuli (Abb. 5, Abb. 6)
From the text: (§1) Wirkungen von Reserpin auf die Erregbarkeit der Pyramidenzellen wurden im Hippokampus-Schnittpräparat der Ratte bestimmt. Die Analyse der Wirkungen erfolgte auf zwei Ebenen. Zunächst wurde anhand der Applikation von Einzelreizen die normale Erregbarkeit überprüft und anschließend nach einer sog. "Theta-burst-Stimulation" die Auswirkungen auf die Langzeitpotenzierung gemessen. Im nächsten Schritt wurde versucht, die Wirkung von Reserpin mit Hilfe von verschiedenen Rezeptor-spezifischen Glutamat Antagonisten zu unterdrücken.
(§2) Desweiteren wurde die Erregbarkeit der Pyramidenzellen in der Ausgangslage durch Superfusion mit einem Glutamat Rezeptor Antagonisten verändert. In der Folge wurde dann gleichzeitig Reserpin mit den verschiedenen Antagonisten zusammen superfundiert, um eine antagonistische Wirkung zu erkennen.
(§3) Dieselbe Versuchsanordnung wurde noch einmal genutzt, um in Gegenwart verschiedenster Glutamat Rezeptor Antagonisten Hinweise für eine Interaktion zwischen Reserpin und einem der Glutamat-Rezeptoren (GluR5 Kainate steht dabei für den ionotropen GluR5 Kainate-Rezeptor, Glu NMDA - für ionotrope NMDA-Rezeptoren, Glu AMPA - für ionotrope AMPA-Rezeptoren, und Glu II - für metabotrope Gruppe II Rezeptoren) zu erhalten (Abb. 5 und Abb.6).
(§4) Es wurden vier Antagonisten getestet. Dabei steht UB 301 für den Kainate-Rezeptor-Antagonisten UBP 301, CAS-Nr. 569371-10-4, der Formel [drawing 2] […]

[2] = tested on: Pyramidenzellen im Hippokampus-Schnittpräparat; conditions: literature description (Dimpfel 1995) used as comparison; cited from earlier work
[3] = tested on: ionotrope AMPA-Rezeptoren; test: Hippocampus slice preparation: suppression of the reserpine effect by a glutamate receptor antagonist (AMPA); format: cell-based, Ratte; conditions: co-superfusion of antagonist with Reserpin; multiple stimuli
From the text: as §1, §2, §3, §4

[4] = tested on: Fischer-344 Ratten; test: Tele-Stereo-EEG: changes of EEG frequencies (spectral power) after oral administration; format: in vivo, Ratte
Method: Die Veränderungen der EEG-Frequenzen wurde nach oraler Gabe von Lactosemonohydrat (Kontrolle/Vehikel) bzw. Verdünnungen von Reserpin in Lactosemonohydrat entsprechend 0,01, 0,02 oder 0,04 µg Reserpin/kg Körpergewicht) bestimmt.
Die Untersuchungen wurden analog der durch W. Dimpfel beschriebenen Methode (Dimpfel W Preclinical data base of pharmaco-specific rat EEG fingerprints (Tele-Stereo-EEG). Eur J Med Res (2003) 8: 199-207; auf dieses Dokument wird vollinhaltlich bezug genommen) folgendermaßen durchgeführt:
Zwölf männlichen erwachsenen Fischer-344 Ratten (Tag-Nacht konvertiert) wurden im Alter von 6 Monaten 4 bipolar konzentrische Elektroden zusammen mit einem Mikrostecker auf einer gemeinsamen Basisplatte implantiert. Der Stecker diente der Aufnahme eines 4-Kanal-Senders zur telemetrischen Übertragung der aus frontalem Kortex, Hippokampus, Striatum und Formatio Reticularis abgeleiteten Feldpotentiale. Die Signale wurden auf einem Computer System (Software "EEG-Analyse", Betriebssystem OS Science, Laborrechner "LabTeam" der Firma MediSyst, Linden, DE) in Echtzeit einer Fast-FourierTransformation unterworfen und die Leistungsdichtespektren jeweils über 60 Minuten gemittelt. Die Unterteilung der Spektren in 6 verschiedene Frequenzbereiche erlaubte die Erfassung pharmako-spezifischer Veränderungen in Bezug auf die jeweils vor Applikation gemessenen Vorwerte innerhalb dieser Frequenzbänder.
Zum Applikationsprotokoll der Substanzen: die Substanzen wurden oral 45 Minuten nach Beginn der Messungen (Vorwert) appliziert. Fünf Minuten später wurden die Messungen wieder gestartet, mindestens über die nächsten 5 Stunden kontinuierlich analysiert und in 60-minütigen Perioden zusammengefasst. Die Testsubstanz wurde in einer Dosierung von 0,01, 0,02 und 0,04 µg/kg appliziert. Die experimentelle Serie wurde mit der Applikation von Lactosemonohydrat (Kontrolle), die zu keiner auffälligen Änderung führte, begonnen (oberste Zeile in Abb. 1).
Der statistische Vergleich der Versuche zu den Ergebnissen, die nach Gabe des Vehikels gemessen wurde, erfolgte mit Hilfe des statistischen Tests nach Wilcoxon, Mann und Whitney auf der Basis der Veränderungen innerhalb der einzelnen Frequenzbänder in allen Hirnregionen als Variablen.

[5] = tested on: Pyramidenzellen im Hippokampus-Schnittpräparat; test: Population spike of pyramidal cells and long-term potentiation in hippocampus slice preparation in vitro; format: cell-based, Ratte; conditions: 0,025-0,1 µg/Liter Reserpin, n=4 slices
From the text: Zunächst wurde anhand der Applikation von Einzelreizen die normale Erregbarkeit überprüft und anschließend nach einer sog. "Theta-burst-Stimulation" die Auswirkungen auf die Langzeitpotenzierung gemessen.
Das Experiment selbst wurde in einer sog. "Base Unit" mit Haas Top" (Firma Medical Systems Corp., USA) bei 35 Grad Celsius durchgeführt. Der mit Hilfe peristaltischer Pumpen (Infusomat B. Braun Melsungen AG) superfundierte Hippokampus-Schnitt lag auf einem Stück Gaze. Eingeleitetes Carbogen hielt die erforderliche Sauerstoffzufuhr der Lösung aufrecht. Die Durchflussgeschwindigkeit betrug 200 ml/h.
Dabei wurde der Schnitt zunächst mit Kontrolllösung superfundiert. […] Jeder Schnitt wurde jeweils nur zu einem Experiment benutzt.
Die Ableitung der evozierten Antwort erfolgte in 10-minütigem Abstand extrazellulär mit einer gezogenen Glaskapillare (Elektrodenpuller, Rhema Labortechnik, DE). Das Antwortsignal wurde verstärkt (Verstärker "LMI", List Electronics, Darmstadt, DE) mit einem Laborrechnersystem Labteam (Software NeuroTool, MediSyst GmbH, Linden DE) analog digital gewandelt (Auflösung 12 Bit) und ausgewertet. Nach Auffinden eines geeigneten Signals (Amplitudenhöhe etwa 1 mV) wurde die Amplitudenhöhe des Populationsspikes (SAP=Summenaktionspotential; Popspike) als Ausgangsgröße festgelegt. […]

In the case of `NC1(C(=O)O)CCc2cc(P(=O)(O)O)ccc21` (racemic) [RS-Apica, (RS)-1-Amino-5-phosphono-indan-1-carbonsäure], the “Unterdrückung der Wirkung von Reserpin durch Antagonist” value [1] was “besonders ausgeprägt unterdrücken”.

In the case of `CC12CC3CC(C)(C1)CC(N)(C3)C2` [Memantin], the “Langzeit-Potenzierung (LTP) bei multipler elektrischer Reizung” value [2] is given as “Steigerung der LTP”.

For `NS(=O)(=O)c1cccc2c1c([N+](=O)[O-])cc1[nH]c(=O)c(=O)[nH]c12` [NBQX], the “Unterdrückung der Wirkung von Reserpin durch Antagonist” value [3] was “auch eine Unterdrückung”.

With `COC(=O)[C@H]1[C@H]2C[C@@H]3c4[nH]c5cc(OC)ccc5c4CCN3C[C@H]2C[C@@H](OC(=O)c2cc(OC)c(OC)c(OC)c2)[C@@H]1OC` [Reserpin, (1S,2R,3R,4aS,13bR,14aS)-2,11-Dimethoxy-3-(3,4,5-trimethoxybenzoyloxy)-1,2,3,4,4a,5,7,8,13,13b,14,14a-dodecahydroindolo[2',3':3,4]pyrido[1,2-b]isochinolin-1-carbonsäuremethylester] the “Frequenzmuster in der Diskriminanzanalyse im Vergleich zu Referenzmedikamenten” value ([4]; 0.02 µg/kg, 35 - 65 min, linear discriminant analysis, 4 brain regions x 6 frequency bands, compared with Memantin, Rasagiline, Methylphenidat) was “korreliert in auffälliger Weise mit den Mustern”, the “Steigerung der Motilität der Tiere” value ([4]; oral, 0,01, 0,02 and 0,04 µg/kg) was “nicht beobachtet” and the “alpha2 Wellen (spektrale Leistung)” value ([4]; oral, 0,01, 0,02 and 0,04 µg/kg, frequency band most affected) was “Besonders stark waren die alpha2 Wellen betroffen”. For the same compound, the “spektrale Leistung in allen Frequenzbereichen (EEG)” value ([4]; oral, 0,01, 0,02 and 0,04 µg/kg, frontal cortex, hippocampus, striatum, formatio reticularis, vs. vehicle Lactosemonohydrat, n=12) was “dosis-abhängigen Unterdrückung der spektralen Leistung in allen Frequenzbereichen”, the “Amplitude des Populationsspikes bei Einzelreizung” value ([5]; single stimuli of Schaffer collaterals) was “Konzentrations-abhängige Zunahme” and the “Auslösung der Langzeitpotenzierung durch TBS” value ([5]; theta-burst stimulation) was “Konzentrations-abhängig verbessert”.
